Experimental data from patent US5587475A, “Derivatized virginiamycin M1” (University of Notre Dame, priority 1995, dated 1996).

Columns and labels:
Micrococcus luteus = experiment: in vivo activity, M.I.C. on M. luteus (VM1 derivatives alone, without VS1); format: cell-based; set-up: key: (+) indicates multiplication of bacteria; conditions: M. luteus in LBroth, 18 h at 37° C. with shaking
Experimental: The synthesized derivatives of the present invention have been tested for antibacterial activity (in solid and liquid medium), ribosome binding affinity and synergistic activity with virginiamycin S. The tests for biological activity were carried out both in vivo and in vitro. The in vivo tests were carried out using Micrococcus luteus as the test organism with the VM1 derivatives alone (without VS1). Minimum inhibitory concentrations (MIC values) were determined on agar broth plates by standard microbiological procedures, with a range of concentrations of the VM derivatives applied to the plates. The in vitro tests of the VM derivatives were performed together with VS1, and took advantage of the unique fluorescence (F) inherent in VS1. The results are summarized in the following tables, wherein the activities are compared to virginiamycin (VM1). | M. luteus in LBroth, 18 h at 37° C. with shaking. | M. luteus in LBroth, 18 h at 37° C. with shaking.

ribosomes = experiment: in vitro activity: binding to free ribosomes, VS1 fluorescence with erythromycin displacement; set-up: key to kobs (symbol): (*) too small to be measured. t/2 is very large; conditions: in vitro Activity of VM1-Carboxylic Acid Derivatives; together with VS1, fluorescence
Experimental: The in vivo tests were carried out using Micrococcus luteus as the test organism with the VM1 derivatives alone (without VS1). Minimum inhibitory concentrations (MIC values) were determined on agar broth plates by standard microbiological procedures, with a range of concentrations of the VM derivatives applied to the plates. The in vitro tests of the VM derivatives were performed together with VS1, and took advantage of the unique fluorescence (F) inherent in VS1. […] Using spectrofluorometry, an increase in fluorescence can be measured when ribosomes are added to a VS1 solution. Erythromycin is known to bind at the same position on the ribosome (50-S subunit) as VS1, and when it is added to the VS1 /ribosomal mixture, a decrease in fluorescence is seen. If VM1 is added to the VS1 /ribosomal/erythromycin mixture, an increase in fluorescence can be measured. Presumably, a conformational change of the ribosomes occurs upon binding of VM1, which allows VS1 to bind preferentially and releases erythromycin from the ribosomes. The VM1 derivatives would also display this type of behavior if they bind to the ribosomes.

CC1=C\[C@@H](O)CC(=O)Cc2nc(co2)C(=O)N2CC[C@H](SCC(=O)O)[C@H]2C(=O)O[C@H](C(C)C)[C@H](C)/C=C/C(=O)NC\C=C\1 [Carboxylic a S,R]
*: kobs (symbol) (ribosomes)
+: in vivo Acitivity of VM1-Carboxylic Derivatives, M.I.C. on M. luteus (multiplication of bacteria) (Micrococcus luteus; Concentration 0.0625 μg/mL) | in vivo Acitivity of VM1-Carboxylic Derivatives, M.I.C. on M. luteus (multiplication of bacteria) (Micrococcus luteus; Concentration 0.125 μg/mL) | in vivo Acitivity of VM1-Carboxylic Derivatives, M.I.C. on M. luteus (multiplication of bacteria) (Micrococcus luteus; Concentration 0.25 μg/mL) | in vivo Acitivity of VM1-Carboxylic Derivatives, M.I.C. on M. luteus (multiplication of bacteria) (Micrococcus luteus; Concentration 0.5 μg/mL) | in vivo Acitivity of VM1-Carboxylic Derivatives, M.I.C. on M. luteus (multiplication of bacteria) (Micrococcus luteus; Concentration 1 μg/mL) | in vivo Acitivity of VM1-Carboxylic Derivatives, M.I.C. on M. luteus (multiplication of bacteria) (Micrococcus luteus; Concentration 2 μg/mL) | in vivo Acitivity of VM1-Carboxylic Derivatives, M.I.C. on M. luteus (multiplication of bacteria) (Micrococcus luteus; Concentration 4 μg/mL) | in vivo Acitivity of VM1-Carboxylic Derivatives, M.I.C. on M. luteus (multiplication of bacteria) (Micrococcus luteus; Concentration 8 μg/mL) | in vivo Acitivity of VM1-Carboxylic Derivatives, M.I.C. on M. luteus (multiplication of bacteria) (Micrococcus luteus; Concentration 16 μg/mL) | in vivo Acitivity of VM1-Carboxylic Derivatives, M.I.C. on M. luteus (multiplication of bacteria) (Micrococcus luteus; Concentration 32 μg/mL) | in vivo Acitivity of VM1-Carboxylic Derivatives, M.I.C. on M. luteus (multiplication of bacteria) (Micrococcus luteus; Concentration 128 μg/mL)
